Laboratory results published in ChEMBL document CHEMBL1151720, “Citreamicins with potent gram-positive activity” (J Nat Prod, 2008).
≈ marks a conversion by molar mass, not a printed value.

Legend:
[1] = tested on: Staphylococcus aureus; assay: Antimicrobial activity against methicillin-susceptible Staphylococcus aureus 29213; assay type: functional
[2] = tested on: Staphylococcus aureus; assay: Antimicrobial activity against methicillin-resistant Staphylococcus aureus 1137; assay type: functional
[3] = tested on: Staphylococcus aureus; assay: Antimicrobial activity against vancomycin-intermediate Staphylococcus aureus 2012; assay type: functional
[4] = tested on: Staphylococcus aureus; assay: Antimicrobial activity against linezolid-resistant methicillin-resistant Staphylococcus aureus 1725; assay type: functional
[5] = tested on: Streptococcus pneumoniae; assay: Antimicrobial activity against penicillin-susceptible Streptococcus pneumoniae 975; assay type: functional
[6] = tested on: Streptococcus pneumoniae; assay: Antimicrobial activity against penicillin-resistant Streptococcus pneumoniae 940; assay type: functional
[7] = tested on: Streptococcus pneumoniae; assay: Antimicrobial activity against quinolone-resistant Streptococcus pneumoniae 376; assay type: functional
[8] = tested on: Haemophilus influenzae; assay: Antimicrobial activity against ampicillin-resistant Haemophilus influenzae 1742; assay type: functional
[9] = tested on: Haemophilus parainfluenzae; assay: Antimicrobial activity against Haemophilus parainfluenzae 2319; assay type: functional
[10] = tested on: Escherichia coli; assay: Antimicrobial activity against Escherichia coli 25922 QC; assay type: functional; settings: ATCC25922
[11] = tested on: Escherichia coli; assay: Antimicrobial activity against extended spectrum beta-lactamase producing Escherichia coli 2269; assay type: functional
[12] = tested on: Klebsiella pneumoniae; assay: Antimicrobial activity against Klebsiella pneumoniae 2239; assay type: functional
[13] = tested on: Moraxella catarrhalis; assay: Antimicrobial activity against Moraxella catarrhalis 557; assay type: functional
[14] = tested on: Serratia marcescens; assay: Antimicrobial activity against Serratia marcescens 1635; assay type: functional
[15] = tested on: Pseudomonas aeruginosa; assay: Antimicrobial activity against Pseudomonas aeruginosa 1473; assay type: functional
[16] = tested on: Staphylococcus aureus; assay: Antimicrobial activity against methicillin-resistant Staphylococcus aureus 43300; assay type: functional
[17] = tested on: Staphylococcus aureus; assay: Antimicrobial activity against methicillin-susceptible Staphylococcus aureus 6538; assay type: functional
[18] = tested on: Enterococcus faecium; assay: Antimicrobial activity against vancomycin-resistant Enterococcus faecium 700221 clinical isolate; assay type: functional
[19] = tested on: Escherichia coli; assay: Antimicrobial activity against Escherichia coli 1411; assay type: functional
[20] = Cytotoxicity against human Hep G2 cells assessed as cell viability measured by change in ATP level after 48 hrs; assay type: functional; settings: HepG2, 48 h
[21] = Cytotoxicity against NHDF cells assessed as cell viability measured by change in ATP level after 48 hrs; assay type: cell-based; settings: human
[22] = tested on: Klebsiella pneumoniae; assay: Antimicrobial activity against ampC beta-lactamase producing multidrug-resistant Klebsiella pneumoniae 2262; assay type: functional

## CCCCCCCCCC(=O)N[C@@H](Cc1c[nH]c2ccccc12)C(=O)N[C@H](CC(N)=O)C(=O)N[C@@H](CC(=O)O)C(=O)N[C@@H]1C(=O)NCC(=O)N[C@@H](CCCN)C(=O)N[C@@H](CC(=O)O)C(=O)N[C@H](C)C(=O)N[C@@H](CC(=O)O)C(=O)NCC(=O)N[C@H](CO)C(=O)N[C@@H]([C@H](C)CC(=O)O)C(=O)N[C@@H](CC(=O)c2ccccc2N)C(=O)O[C@@H]1C
[1]
  MIC: 1 µg/mL (≈ 0.617 µM)
[2]
  MIC: 1 µg/mL (≈ 0.617 µM)
[3]
  MIC: 8 µg/mL (≈ 4.94 µM)
[4]
  MIC: 1 µg/mL (≈ 0.617 µM)
[5]
  MIC: 0.25 µg/mL (≈ 0.154 µM)
[6]
  MIC: 0.25 µg/mL (≈ 0.154 µM)
[7]
  MIC: 0.25 µg/mL (≈ 0.154 µM)
[8]
  MIC: > 64 µg/mL
[9]
  MIC: > 64 µg/mL
[10]
  MIC: > 64 µg/mL
[11]
  MIC: > 64 µg/mL
[12]
  MIC: > 64 µg/mL
[13]
  MIC: 16 µg/mL (≈ 9.87 µM)
[14]
  MIC: > 64 µg/mL
[15]
  MIC: > 64 µg/mL

## COc1ccc2oc3c(c(=O)c2c1O)C(=O)c1c(ccc2cc4c(c(O)c12)C(=O)N1C(C)(C4)OC(=O)C1(C)CO)C3=O (stereo not drawn) [CITREAMICIN DELTA]
[16]
  MIC: 0.5 µg/mL (≈ 0.875 µM)
[17]
  MIC: ≤ 0.5 µg/mL
[1]
  MIC: 1 µg/mL (≈ 1.75 µM)
[2]
  MIC: 2 µg/mL (≈ 3.5 µM)
[3]
  MIC: 2 µg/mL (≈ 3.5 µM)
[4]
  MIC: 1 µg/mL (≈ 1.75 µM)
[18]
  MIC: ≤ 0.25 µg/mL
[5]
  MIC: ≤ 0.06 µg/mL
[8]
  MIC: 1 µg/mL (≈ 1.75 µM)
[9]
  MIC: 1 µg/mL (≈ 1.75 µM)
[19]
  MIC: > 128 µg/mL
[10]
  MIC: > 64 µg/mL
[11]
  MIC: > 64 µg/mL
[12]
  MIC: > 64 µg/mL
[13]
  MIC: 4 µg/mL (≈ 7 µM)
[14]
  MIC: > 64 µg/mL
[15]
  MIC: > 64 µg/mL
[20]
  CC90: 2.4 µg/mL (≈ 4.2 µM)
[21]
  CC90 at 48 h: 0.3 µg/mL (≈ 0.525 µM)

## COc1ccc2oc3c(O)c4c(c(O)c3c(=O)c2c1O)-c1c(cc2c(c1O)C(=O)N1C(C)(C2)OC(=O)C1(C)CO)CC4 (stereo not drawn) [CITREAMICIN EPSILON]
[16]
  MIC: 0.13 µg/mL (≈ 0.226 µM)
[17]
  MIC: 0.13 µg/mL (≈ 0.226 µM)
[1]
  MIC: 0.12 µg/mL (≈ 0.209 µM)
[2]
  MIC: 0.25 µg/mL (≈ 0.434 µM)
[3]
  MIC: 0.25 µg/mL (≈ 0.434 µM)
[4]
  MIC: 0.12 µg/mL (≈ 0.209 µM)
[18]
  MIC: 0.5 µg/mL (≈ 0.869 µM)
[5]
  MIC: 0.25 µg/mL (≈ 0.434 µM)
[6]
  MIC: 0.12 µg/mL (≈ 0.209 µM)
[7]
  MIC: 0.25 µg/mL (≈ 0.434 µM)
[8]
  MIC: > 32 µg/mL
[9]
  MIC: > 32 µg/mL
[19]
  MIC: > 64 µg/mL
[10]
  MIC: > 32 µg/mL
[11]
  MIC: > 32 µg/mL
[12]
  MIC: > 32 µg/mL
[22]
  MIC: > 32 µg/mL
[13]
  MIC: 0.5 µg/mL (≈ 0.869 µM)
[14]
  MIC: > 32 µg/mL
[15]
  MIC: > 32 µg/mL
[20]
  CC90: 1 µg/mL (≈ 1.74 µM)
[21]
  CC90 at 48 h: 0.1 µg/mL (≈ 0.174 µM)

## CC(=O)NC[C@H]1CN(c2ccc(N3CCOCC3)c(F)c2)C(=O)O1 [LINEZOLID]
[16]
  MIC: 1 µg/mL (≈ 2.96 µM)
[17]
  MIC: 0.5 µg/mL (≈ 1.48 µM)
[3]
  MIC: 1 µg/mL (≈ 2.96 µM)
[6]
  MIC: 0.25 µg/mL (≈ 0.741 µM)
[8]
  MIC: 8 µg/mL (≈ 23.7 µM)
[9]
  MIC: 16 µg/mL (≈ 47.4 µM)
[10]
  MIC: > 64 µg/mL
[11]
  MIC: > 64 µg/mL
[12]
  MIC: > 64 µg/mL
[13]
  MIC: 4 µg/mL (≈ 11.9 µM)
[14]
  MIC: > 64 µg/mL
[15]
  MIC: > 64 µg/mL

## C[C@@H](O)[C@H]1C(=O)N2C(C(=O)O)=C(S[C@@H]3CN[C@H](C(=O)N(C)C)C3)[C@H](C)[C@H]12 [MEROPENEM]
[1]
  MIC: 0.25 µg/mL (≈ 0.652 µM)
[3]
  MIC: > 4 µg/mL
[4]
  MIC: 0.25 µg/mL (≈ 0.652 µM)
[5]
  MIC: 0.015 µg/mL (≈ 0.0391 µM)
[6]
  MIC: 1 µg/mL (≈ 2.61 µM)
[7]
  MIC: 0.015 µg/mL (≈ 0.0391 µM)
[8]
  MIC: 0.06 µg/mL (≈ 0.156 µM)
[9]
  MIC: 0.03 µg/mL (≈ 0.0782 µM)
[10]
  MIC: 0.03 µg/mL (≈ 0.0782 µM)
[11]
  MIC: 0.03 µg/mL (≈ 0.0782 µM)
[12]
  MIC: 0.06 µg/mL (≈ 0.156 µM)
[22]
  MIC: > 64 µg/mL
[13]
  MIC: ≤ 0.004 µg/mL
[14]
  MIC: 0.06 µg/mL (≈ 0.156 µM)
[15]
  MIC: 4 µg/mL (≈ 10.4 µM)
